One assay deals with DU-145. Briefly: Antitumor activity against human DU145 cells. It counts as functional, cell-based.
Another assay concerns A549. As to the kind of experiment: Antitumor activity against human A549 cells. It counts as functional, cell-based.
The subject of a further assay is HT-29. Briefly: Antitumor activity against human HT-29 cells. It counts as functional, cell-based.
A short description of assay [1]: Antitumor activity against human U251MG cells. It counts as functional, cell-based. The settings on record: U-251.
In a further assay the test system is MCF7. Briefly: cells. It counts as functional, cell-based. The settings on record: Homo sapiens.
In another assay the test system is PC-3. Briefly: cells. The settings on record: Homo sapiens.
A further assay has as its system NCI-H157. As to the kind of experiment: Antitumor activity against human NCI-H157 cells by MTT assay. It counts as functional, cell-based.
Another assay in a line: cells. The settings on record: Mus musculus, ML1.
A further assay concerns Malme-3M. As to the kind of experiment: Antitumor activity against human MALME-3M cells. It counts as functional, cell-based.
A further assay deals with LNCaP. As to the kind of experiment: Antitumor activity against human LNCAP cells. It counts as functional, cell-based.
A further assay relates to MCF-10A. Briefly: cells. It counts as functional, cell-based. The settings on record: Homo sapiens.
Assay [2] has as its target Histone deacetylase (Homo sapiens) (UniProt Q13547+O15379+Q9UBN7+Q92769+Q9UQL6+Q8WUI4+Q9BY41+Q96DB2+P56524+Q9UKV0+Q969S8). The settings on record: HeLa, at 5 µM.
Description: Inhibition of HDAC from human HeLa cells assessed as of histone H3 acetylation at 5 uM
A short description of assay [3]: Antitumor activity against human H82 cells. It counts as functional, cell-based. The settings on record: NCI-H82.
The next assay concerns NCI-H69. As to the kind of experiment: Antitumor activity against human H69 cells. It counts as functional, cell-based.
Another assay has as its system DuPro. As to the kind of experiment: Antitumor activity against human DuPro cells. It counts as functional, cell-based.
For the next assay, the system named is MDA-MB-435. As to the kind of experiment: Antitumor activity against human MDA-MB-435 cells. It counts as functional, cell-based.
Another assay deals with Enterocytozoon bieneusi. As to the kind of experiment: Antimicrobial activity against Enterocytozoon bieneusi. It counts as functional, organism-based.
The subject of another assay is L1210. As to the kind of experiment: Antitumor activity against mouse L1210 cells. It counts as functional, cell-based.
In the next assay the test system is HeLa. Briefly: Antiproliferative activity against human HeLa cells. It counts as functional, cell-based.

Description for MCF-10A: Antitumor activity against human MCF10A cells
Description for MCF7: Antitumor activity against human MCF7 cells
Description for PC-3: Antitumor activity against human PC3 cells

As for `CCNCCCNCC#CCNCCCNCC`, the IC50 (with DU-145; in the assay on A549; in the assay on HT-29; in [1]; in the assay with MCF7; in the assay on PC-3) was greater than 30000 nM each time.

In turn, `c1ccc(-c2ccccc2CNCCCNCCCNCCCNCc2ccccc2-c2ccccc2)cc1` displayed a 50% inhibitory concentration (IC50) in the assay with NCI-H157 of 4200 nM.

In the case of `CCNCCCNCCCNCCCNCCC(C)C`, in the assay on NCI-H157, the concentration for half-maximal inhibition (IC50) stood at 600 nM.

For `CC(/C=C/C(=O)NO)=C\[C@@H](C)C(=O)c1ccc(N(C)C)cc1` [TRICHOSTATIN], it took 250 nM to reach half-maximal inhibition in “cells” (IC50). This counts as sub-micromolar.

Consider `CC(C)NCCCNCCCCNCCCNC(C)C`, for which the IC50 in the assay on Malme-3M was found to be 3000 nM. In other words, the single-digit micromolar range.

Regarding `CCNCCCCNCCCCNCCCCNCCCCNCC`, the IC50 with DU-145, in the assay on LNCaP and with PC-3 was 100 nM throughout.

Take `CC(C)c1ccc(CNCCCCNCCCNCc2ccc(C(C)C)cc2)cc1`: it took 4200 nM to reach half-maximal inhibition in the assay on NCI-H157 (IC50).

Consider `Nc1ccccc1NC(=O)c1ccc(CNC(=O)CCCCCCCCC(=O)NCCCNCCCCNCCC(c2ccccc2)c2ccccc2)cc1`, for which the concentration for half-maximal inhibition (IC50) in the assay with MCF7 and in the assay with MCF-10A was greater than 30000 nM throughout. The same compound came in with an inhibition in assay [2] of 42.9%.

On to `c1ccc(C(CCNCCCNCCCCNCCCNCCC(c2ccccc2)c2ccccc2)c2ccccc2)cc1`, for which the IC50 in the assay on NCI-H157 came to 3800 nM.

In the assay with NCI-H157, `C(CCCNCCCNCC1CCCCCC1)CCCNCCCNCC1CCCCCC1` came in with an IC50 of 2900 nM.

`C=C(C)CNCCCNCCCNCCCNCC` returned a concentration for half-maximal inhibition (IC50) in the assay with NCI-H157 of 700 nM.

In turn, `CCNCCCNCCCNCCCNCCSCC` came in with a 50% inhibitory concentration (IC50) with NCI-H157 of 300 nM.

As to `Nc1ccccc1NC(=O)c1ccc(CNC(=O)CCCCCCC(=O)NCCCNCCCCNCCC(c2ccccc2)c2ccccc2)cc1`, the IC50 with MCF7 and in the assay on MCF-10A was greater than 30000 nM each time.

For the compound `CCNCCCNCCCNCCCNCC1CCCCCC1`, the IC50 (in the assay with NCI-H157; in assay [3]) was 700 nM in each case.

As for `CCNCCCNCCCNCCCNCCSc1ccccc1`, it took 300 nM to reach half-maximal inhibition in the assay with NCI-H157 (IC50).

As to `CCNCCCNCCCCNCCCNCCC(C)(C)C`, the IC50 is 900 nM with A549, 1800 nM with NCI-H157, 900 nM in assay [3] and 900 nM with NCI-H69.

For the compound `O=C(CCCCCCC(=O)NCc1ccc(C(=O)O)cc1)NCCCNCCCCNCC(c1ccccc1)c1ccccc1`, the IC50 in the assay on MCF7 and in the assay on MCF-10A was greater than 30000 nM each time. For the same compound, in assay [2], the inhibition came out at 72.6%.

With `CCNC[C@H]1C[C@@H]1CNCCCCNC[C@H]1C[C@@H]1CNCC`, the IC50 in the assay with DU-145 and in the assay with DuPro was 60 nM throughout.

With `c1ccc(C(CCNCCCNCCCNCCCNCCC(c2ccccc2)c2ccccc2)c2ccccc2)cc1`, it took 4100 nM to reach half-maximal inhibition in the assay on NCI-H157 (IC50).

On to `c1ccc(CCc2ccccc2CNCCCCNCCCNCc2ccccc2CCc2ccccc2)cc1`, for which the half-inhibitory concentration (IC50) with NCI-H157 is 4200 nM. This IC50 and that of the compound before are within 1.5-fold of each other.

With `CCNCCCNCCCNCCCNCC(CC)CC`, the IC50 in the assay with NCI-H157 stood at 800 nM.

As to `Nc1ccccc1NC(=O)c1ccc(CNC(=O)CCCCC(=O)NCCCNCCCCNCCC(c2ccccc2)c2ccccc2)cc1`, the concentration for half-maximal inhibition (IC50) with MCF7 and in the assay with MCF-10A was greater than 30000 nM throughout. In addition, the inhibition in [2] came out at 48.4%.

For `CCNCCCCNCCCCNCCCCNC/C=C/CNCCCCNCCCCNCCCCNCC`, the IC50 in the assay on DU-145, in the assay on LNCaP, with MDA-MB-435, in the assay on Enterocytozoon bieneusi, in the assay with DuPro and in the assay with PC-3 was 130 nM each time.

In the case of `CCNCCCCNCCCCNCCCCNCCCCNC/C=C/CNCCCCNCCCCNCCCCNCCCCNCC`, the 50% inhibitory concentration (IC50) in the assay with DU-145, in the assay with LNCaP, in the assay with DuPro and in the assay with PC-3 was 90 nM each time.

Turning to `CCNCCCNCCCNCCCNCC` [BIS(ETHYL)NORSPERMINE], the IC50 in the assay on L1210 and with Malme-3M was 200 nM in each case.

Turning to `Nc1ccccc1NC(=O)c1ccc(CNC(=O)CCCCCCCC(=O)NCCCNCCCCNCCC(c2ccccc2)c2ccccc2)cc1`, the IC50 in the assay with MCF7 and with MCF-10A was greater than 30000 nM in each case. The compound further registered an inhibition in assay [2] of 47%.

On to `Cc1cccc(NC(=O)c2ccc(CNC(=O)CCCCCCC(=O)NCCCNCCCCNCCC(c3ccccc3)c3ccccc3)cc2)c1`, for which the 50% inhibitory concentration (IC50) in the assay with MCF7 and in the assay on MCF-10A was greater than 30000 nM throughout. Further, the inhibition in assay [2] is 42.6%.

Turning to `c1ccc(-c2ccccc2CNCCCCNCCCNCc2ccccc2-c2ccccc2)cc1`, in the assay on NCI-H157, it took 4000 nM to reach half-maximal inhibition (IC50).

Compound `NCCCNCCCCCCCCNCCCN` came in with a concentration for half-maximal inhibition (IC50) with HeLa of 5000 nM.

In the case of `CC(C)(C)c1ccc(CNCCCCNC(=O)CCCCCCC(=O)c2ncco2)cc1`, the IC50 in the assay on MCF7 was 27000 nM; with MCF-10A, greater than 30000 nM. Further, the inhibition in [2] is 43.7%.

Regarding `CCNCCCCNCCCCNCCCCNCC` [DIETHYLHOMOSPERMINE], the concentration for half-maximal inhibition (IC50) with Malme-3M is 1000 nM.

Broadly, the IC50 is the point on the concentration scale where inhibition reaches its midpoint. Low values mean higher potency, high ones lower potency. The term inhibition denotes the share of the control response that was lost under treatment. Higher therefore signals a response far below the control.

The values are drawn from ChEMBL document CHEMBL1158462, “Recent advances in the development of polyamine analogues as antitumor agents” (J Med Chem, 2009).
